Here are results for 71 compounds from PubChem BioAssay AID179 (DTP/NCI, 2004).

Structures are written as SMILES. pEC50, pIC50: −log10 of the molar value. Activity calls are given as the source filed them.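 How the source made its calls: active means compounds giving half or more protection of infected cells from virus-caused growth loss, again on retest; inactive means the rest.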

The subject of the test is CEM cells HIV-1 protection, formazan growth assay. Kind of test: NCI AIDS Antiviral Assay. Particulars: for pIC50: measured here: growth of uninfected CEM cells. The method in brief: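 Five concentrations of each compound were applied to infected and uninfected human CEM cells. Protection from HIV-1 was judged from growth measured with a soluble formazan assay.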

In general, pEC50 refers to the negative decadic logarithm of the EC50, by convention in mol/L. By pIC50 is commonly meant the IC50 on a negative log10 scale, so that one unit is a factor of ten. In the case of `CCC[C@H]1C(=O)N=C(N)N1C(=O)OCc1ccccc1`, the pEC50 was less than 3.70 and the pIC50 was less than 3.70.

For `NNC(=O)c1ccccc1NC(=O)/C(=C/c1ccccc1)NC(=O)c1ccccc1`, the pEC50 is less than 3.70 and the pIC50 is 4.06.

As to `Oc1ccc(Nc2ccccc2)cc1`, the pEC50 is less than 3.85 and the pIC50 is 4.61.

`CC(C)(C)c1ccc(-c2nnc(-c3cc(C#N)cc(-c4nnc(-c5ccc(C(C)(C)C)cc5)o4)c3)o2)cc1`: the pEC50 was less than 4.00 and the pIC50 is less than 4.00.

Consider `Cc1cc2c3c(c1)CCCN3CCC2`, for which the pEC50 was less than 3.70 and the pIC50 was less than 3.70.

Turning to `COc1ccc(C(=C2C(=O)N(c3ccccc3)C(=O)C2=C(C)C)c2ccc(OC)cc2)cc1`, the pEC50 is less than 3.70 and the pIC50 is 5.47.

On to `Cc1cn(C2C(CO)C(CO)C2(F)F)c(=O)[nH]c1=O` (stereo not drawn), for which the pEC50 was less than 3.70 and the pIC50 is less than 3.70.

As for `O=c1c2cccnc2ncn1CCCN1CCOCC1`, the outcome was inactive.

For the compound `Cc1sc2c(c1C)c(=O)[nH]c1c(C#N)c(-c3ccc(Cl)cc3)cn12`, the pEC50 was 3.73 and the pIC50 was less than 3.70.

As to `CC(=N\N=C\c1ccccn1)/C(C)=N/N=C(C)/C(C)=N/N=C(C)/C(C)=N/N=C/c1ccccn1`, the outcome was inactive.

For `CC1CC/C(=C\c2ccc(Cl)cc2)C2=C1C(c1ccc(Cl)cc1)N1C(=O)CSC1=N2` (stereo not drawn), the result was inactive.

As for `CC1(C)Oc2ccc3ccc(=O)oc3c2C(O)C1O` (stereo not drawn), the pEC50 was less than 3.70 and the pIC50 is 3.94.

As for `CCN1CC2(C)CC[C@@H](OC)C34[C@@H]2[C@H](OC(C)=O)C2(OCO[C@@]25C[C@H](OC)C2C[C@]3(O)[C@@H]5[C@H]2O)[C@H]14`, the outcome was inactive.

Take `CN1C(=O)OC(c2ccc(Cl)cc2)C1=O` (stereo not drawn): the pEC50 is less than 3.70 and the pIC50 was less than 3.70.

On to `C/C(=N\NC(N)=S)c1sc(-n2nc(-c3ccccc3)cc2-c2ccccc2)nc1C`, for which the pEC50 was less than 4.78 and the pIC50 is less than 4.78.

In the case of `COC(OC)C1(c2ccccc2)Oc2ccccc2C1=O` (stereo not drawn), the pEC50 was less than 3.78 and the pIC50 was 4.09.

On to `CCOP(OCC)SSCn1nc2ccc3ccccc3n2c1=O`, for which the pEC50 was less than 3.70 and the negative logarithm of the IC50 (pIC50) was 4.15.

With `COc1ccc(P2(=S)Oc3ccccc3-c3ccccc3O2)cc1`, the pEC50 was less than 6.70 and the pIC50 is 7.20.

In the case of `C1=CN2CCCN3C=CC=c4ccc(c2c43)=C1`, the pEC50 was less than 3.70 and the pIC50 is 3.96.

For the compound `CCOC(=O)CCn1cnc(N)n1`, the outcome was inactive.

As to `Nc1nc(Cl)cc(NCCCCCCNc2cc(Cl)nc(N)n2)n1`, the outcome was inactive.

Turning to `O=C1c2ccccc2C(=O)c2cc(N=Nc3c(O)ccc4ccccc34)ccc21`, the pEC50 is less than 4.00 and the negative logarithm of the IC50 (pIC50) was less than 4.00.

`O=S(=O)(c1ccccc1)c1ccccn1`: the pEC50 was 4.12 and the pIC50 is 3.39.

As for `CC(C)/C(Cl)=N\OC(=O)NNc1ccccc1`, the pEC50 was less than 4.70 and the pIC50 is 5.24.

`O=c1c2ccccc2nc(N/N=C/c2ccccc2O)n1-c1ccccc1`: the pEC50 is less than 3.70 and the pIC50 was 5.83.

Regarding `O=c1c(SCc2ccc(Br)cc2)c(SCc2ccc(Br)cc2)cnn1-c1ccccc1`, the pEC50 was less than 4.90 and the pIC50 is 5.19.

Regarding `CC1(C)C[C@@H]2C1CCC1(C)CC2(O)CC[C@H]1O` (stereo partly drawn), the pEC50 is less than 3.70 and the pIC50 was less than 3.70.

With `N#CC[P+](c1ccccc1)(c1ccccc1)c1ccccc1`, the pEC50 is less than 3.70 and the pIC50 was 3.85.

For `Cn1c(=O)n(C2(C)CSC2)c2ccccc21`, the pEC50 is less than 3.25 and the pIC50 was 3.75.

With `O=C(CNc1nccs1)Nn1cnc2ccc(S(=O)(=O)Nc3nccs3)cc2c1=O`, the pEC50 is less than 3.70 and the pIC50 is less than 3.70.

For `Cc1cc2c(cc1C)C(=O)C(=O)N2`, the pEC50 is less than 3.83 and the pIC50 is less than 3.83.

Take `NC(=O)CCS(=O)(=O)O`: the pEC50 was less than 3.70 and the pIC50 was less than 3.70.

For `CN1c2ccccc2C2=C(c3ccccc3)CC[C@@H](C(=O)N3C4CC5CC[C@@]4(CS3(=O)=O)C5(C)C)[C@@H]21` (stereo partly drawn), the pEC50 was less than 3.70 and the pIC50 was 3.89.

In the case of `Cc1cc(-c2c(O)c3ccc4ccccc4c3oc2=O)no1`, the pEC50 was less than 4.70 and the pIC50 is less than 4.70.

For `COC1/C=C\C=C(/C)C(=O)NC2=CC(=O)C(NC3CC3)=C(CC(C)CC(OC)C(O)C(C)/C=C(/C)C1OC(N)=O)C2=O` (stereo not drawn), the outcome was inactive.

As to `O=C1c2cc(O)c(O)cc2O[C@H](c2ccc(O)c(O)c2)[C@H]1O`, the pEC50 is less than 3.70 and the pIC50 is 3.77.

Turning to `O=c1n(-c2ccccc2)c(=O)n2n1C1/C=C\C=C/C2C2CCC21` (stereo not drawn), the pEC50 is less than 3.70 and the pIC50 is less than 3.70.

For `COc1ccc(C=O)c(NC(=O)C(C)C)c1`, the result was inactive.

For the compound `O=C(NCCCN(CCCCN(CCCNC(=O)C(F)(F)F)CCCc1ccccc1)CCCc1ccccc1)C(F)(F)F`, the pEC50 is less than 3.70 and the pIC50 is 5.01.

Consider `O=C(NNc1ccnc2cc(Cl)ccc12)/C(=C\c1ccccc1Cl)NC(=O)c1ccccc1`, for which the pEC50 was less than 4.00 and the negative logarithm of the IC50 (pIC50) was 4.25.

Regarding `O=C(O/C(=C(/N=Nc1ccccc1)c1ccccc1)c1ccccc1)c1ccccc1`, the outcome was inactive.

For the compound `COc1c(OC)c(OC)c2c(=O)c(OC)c(-c3ccc4c(c3)OCO4)oc2c1OC`, the pEC50 is less than 3.70 and the pIC50 is less than 3.70.

Regarding `CC(=O)O[C@]12CCCCCC1C1(O)C(O)CCCCC12` (stereo partly drawn), the pEC50 is less than 3.70 and the pIC50 is less than 3.70.

For the compound `COP(=O)(O)C(N)Cc1c[nH]c2ccccc12` (stereo not drawn), the pEC50 is less than 3.70 and the pIC50 was less than 3.70.

With `CCCCCC1C2C(=O)NC(=O)C1C(=O)NC2=O` (stereo not drawn), the pEC50 is less than 3.00 and the pIC50 was less than 3.00.

Take `O=C(C=Nc1ccccc1C(=O)[O-])c1cccs1.O=C(C=Nc1ccccc1C(=O)[O-])c1cccs1.[Cu+2]`: the outcome was inactive.

Turning to `CCOC(=O)/C(=C\c1ccc(N(C)C)cc1)C(C)=O`, the pEC50 was less than 3.30 and the pIC50 is 3.79.

Regarding `CSc1ccc(N2C(=O)C3c4[nH]c5ccccc5c4C4CCC(C(C)(C)C)CC4C3C2=O)cc1` (stereo not drawn), the pEC50 was less than 5.66 and the pIC50 is less than 5.66.

With `CCOC(=O)/C(I)=C/c1cc(OC)c(OC)c(OC)c1`, the pEC50 was less than 3.85 and the pIC50 was 4.07.

In the case of `NC(CO)Cc1cnc[nH]1` (stereo not drawn), the pEC50 was less than 3.70 and the pIC50 was less than 3.70.

For the compound `Cc1cc(C)c(C2=NO[C@@H]3C(=O)N(c4ccc(Cc5ccc(N6C(=O)[C@H]7C(c8c(C)cc(C)cc8C)=NO[C@H]7C6=O)cc5)cc4)C(=O)[C@H]23)c(C)c1`, the pEC50 was less than 5.12 and the pIC50 is less than 5.12.

`CC(C)OP(=O)(OC(C)C)C(=Nc1ccccc1)NNc1ccc([N+](=O)[O-])cc1`: the pEC50 was less than 4.49 and the pIC50 is 4.66.

For the compound `CCN(CC)C(=O)COc1cc2c(O)c3c(O)c(C)c4c(c13)C(=O)C(C)(O/C=C/C(OC)C(C)C(OC(C)=O)C(C)C(O)C(C)C(O)C(C)/C=C/C=C(\C)C(=O)N2)O4` (stereo not drawn), the pEC50 was less than 3.70 and the pIC50 is 4.13.

Take `Cc1ccc2[nH]c(=O)c(C(C#N)c3ccccc3)nc2c1` (stereo not drawn): the outcome was inactive.

For `C=CCC(SC)C1=C(C)C(=O)c2ccccc21` (stereo not drawn), the pEC50 was less than 3.70 and the pIC50 is 3.96.

`CCOC(=O)c1c(NS(=O)(=O)c2ccc(C)cc2)sc2c1CCCC2`: the pEC50 is less than 3.70 and the negative-log IC50 (pIC50) is 4.60.

`Cc1nnc2n1-c1ccccc1-c1[nH]c3ccccc3c1C2`: the pEC50 is less than 3.70 and the negative-log IC50 (pIC50) was 4.65.

Turning to `CC(Cl)CC(=O)OCC1CCCN2CCCCC12` (stereo not drawn), the pEC50 was less than 3.70 and the pIC50 was less than 3.70.

For `CC(=O)N=S(NC(=O)c1ccc(C)cc1)C(Cl)(Cl)Cl` (stereo not drawn), the pEC50 was less than 3.70 and the pIC50 is 4.47.

Take `CC#N.CC#N.COC(=O)[C@@H]1CN(C(=O)Cc2ccccc2)C(=O)[N-]1.COC(=O)[C@@H]1CN(C(=O)Cc2ccccc2)C(=O)[N-]1.COC(=O)[C@@H]1CN(C(=O)Cc2ccccc2)C(=O)[N-]1.COC(=O)[C@@H]1CN(C(=O)Cc2ccccc2)C(=O)[N-]1.[Rh+2].[Rh+2]`: the pEC50 is less than 4.92 and the pIC50 was 4.96.

`Cn1c2ccccc2c2nnc(-n3nc(-c4ccccc4)cc3N)nc21`: the pEC50 is less than 3.70 and the pIC50 was 4.27.

In the case of `N#CC(C(N)=O)C(CC(=O)c1ccccc1)c1ccccc1` (stereo not drawn), the pEC50 is less than 3.70 and the pIC50 was 3.84.

`CCC12C=CCN3CC[C@@]4(c5ccc(OC)cc5N(C)[C@H]4[C@@](O)(C(=O)OC)[C@@H]1OC(C)=O)C32` (stereo partly drawn): the outcome was inactive.

On to `N#Cc1c(N)oc2cc3c(C#N)c(N)oc3cc12`, for which the outcome was inactive.

For the compound `CCC1CN2CCc3cc(OC)c(OC)cc3C2CC1CC1c2cc(OC)c(OC)cc2CCN1C(=O)CNC(=O)OC(C)(C)C` (stereo not drawn), the outcome was inactive.

With `C=CCNC(=O)/C=C\C(=O)O`, the pEC50 is less than 2.79 and the pIC50 was less than 2.79.

Turning to `O=C(O)CCCc1ccc(N(CCCl)OCCCl)cc1`, the pEC50 was less than 3.70 and the pIC50 was 4.66.

Turning to `O=C1CN2C(c3ccccc3)=NN(c3ccc([N+](=O)[O-])cc3)C2(c2ccccc2)c2cc(Cl)ccc2N1CC1CC1` (stereo not drawn), the pEC50 is less than 4.00 and the negative-log IC50 (pIC50) is less than 4.00.

In the case of `CC1(C)OCN(c2ccc(Cl)cc2)Cn2c1nc1ccccc12`, the pEC50 was less than 3.70 and the pIC50 is 4.54.

For the compound `CCN(CC)CCNc1ccc(CO)c2oc3ccc(O)cc3c(=O)c12`, the pEC50 was less than 3.72 and the pIC50 is 5.88.

Turning to `C[C@@H]1C[C@@H](O)[C@]2(O)O[C@@H]3C[C@@]4(C=O)[C@@H](CC[C@@H]5[C@@H]4CC[C@]4(C)[C@@H](C6=CC(=O)OC6)CC[C@]54O)C[C@H]3O[C@@H]2O1`, the pEC50 was less than 3.33 and the pIC50 is 5.74.
